Test results reported in patent US10870638B2, “Pyridazinone compound or its salt, and herbicide containing it” (ISHIHARA SANGYO KAISHA, LTD., priority 2016, dated 2020).

Key:
Type in all cases: in vivo
Conditions in all cases: 14th day after application
[1] = tested on: redroot pigweed (Amaranthus retroflexus L.); test: Test Example 2: soil application on the day after sowing, growth inhibition rate on 14th day
Summary of the method: (§1)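 Pre-emergence soil spray, day after sowing; WP or EC formulations diluted to 1,000 L/ha water at set a.i. rates. Visual growth inhibition %, 0 = untreated, 100 = complete kill, read at day 14.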

[2] = tested on: crabgrass (Digitaris sanquinalis L.); test: as above
Summary of the method: as §1

[3] = tested on: barnyardgrass (Echinochloa crus-qalli L.); test: as above
Summary of the method: as §1

[4] = tested on: soybean (Glycine max Merr.); test: as above
Summary of the method: as §1

[5] = tested on: green foxtail (Setaria viridis L.); test: as above
Summary of the method: as §1

corn (Zea mays L.) [6] = test: as above
Summary of the method: as §1

[7] = tested on: velvetleaf (Abutilon theophrasti MEDIC.); test: as above
Summary of the method: as §1

rice (Oryza sativa L.) [8] = test: as above
Summary of the method: as §1

[9] = tested on: prickly sida (Sida spinosa L.); test: as above
Summary of the method: as §1

[10] = tested on: wheat (Triticum aestivum L.); test: as above
Summary of the method: as §1

[11] = tested on: crabgrass (Digitaria sanquinalis L.); test: Test Example 1: foliar treatment, growth inhibition rate on 14th day
Summary of the method: (§2)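 Visual 0–100% inhibition scoring (100 = complete kill) at 14 days after foliar treatment of soil-grown seedlings at species-specific leaf stages, with the compound sprayed as a wettable powder or emulsifiable concentrate dilution.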

[12] = tested on: wild oat (Avena fatua L.); test: as above
Summary of the method: (§3)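 Growth inhibition rates (%) come from visual observation on the 14th day following a single foliar application. Soybean was sprayed at the primary leaf stage, rice at 0.2–2.7 leaves, wild oat at 0.4–1.2, green foxtail at 0.5–3.2.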

[13] = tested on: redroot pigweed (Amaranthus retroflexus L.); test: as above
Summary of the method: as §2

[14] = tested on: barnyardgrass (Echinochloa crus-qalli L.); test: as above
Summary of the method: as §2

[15] = tested on: soybean (Glycine max Merr.); test: as above
Summary of the method: as §3

[16] = tested on: italian ryegrass (Lolium multiflorum Lam.); test: as above
Summary of the method: as §2

[17] = tested on: green foxtail (Setaria viridis L.); test: as above
Summary of the method: as §3

corn (Zea mays L.) [18] = test: as above
Summary of the method: as §2

rice (Oryza sativa L.) [19] = test: as above
Summary of the method: as §3

[20] = tested on: wheat (Triticum aestivum L.); test: as above
Summary of the method: as §2

[21] = active ingredient amount 31 g/ha
[22] = active ingredient amount 31 g/ha, visual, 0 = non-treated, 100 = complete kill
[23] = active ingredient amount 500 g/ha

CCc1ccc(Oc2ncc(C(F)(F)F)cc2Cl)cc1-c1c(O)cnn(C)c1=O [1-95]
Growth inhibition rate (%) Redroot pigweed [1, 21]: 0%
Growth inhibition rate (%) Crabgrass [2, 21]: 100%
Growth inhibition rate (%) Barnyardgrass [3, 21]: 100%
Growth inhibition rate (%) Soybean [4, 21]: 0%
Growth inhibition rate (%) Green foxtail [5, 21]: 100%
Growth inhibition rate (%) Corn (corn (Zea mays L.) [6]; [21]): 80%
Growth inhibition rate (%) Velvetleaf [7, 21]: 0%
Growth inhibition rate (%) Rice (rice (Oryza sativa L.) [8]; [21]): 50%
Growth inhibition rate (%) Prickly sida [9, 21]: 0%
Growth inhibition rate (%) Wheat [10, 21]: 0%
Growth inhibition rate (%) Crabgrass [11, 21]: 100%
Growth inhibition rate (%) Wild oat [12, 21]: 99%
Growth inhibition rate (%) Redroot pigweed [13, 21]: 0%
Growth inhibition rate (%) Barnyardgrass [14, 21]: 100%
Growth inhibition rate (%) Soybean [15, 21]: 0%
Growth inhibition rate (%) Italian ryegrass [16, 21]: 95%
Growth inhibition rate (%) Green foxtail [17, 21]: 100%
Growth inhibition rate (%) Corn (corn (Zea mays L.) [18]; [21]): 100%
Growth inhibition rate (%) Rice (rice (Oryza sativa L.) [19]; [21]): 80%
Growth inhibition rate (%) Wheat [20, 21]: 45%

Cc1ccc(Oc2nc3ccc(Cl)cc3o2)cc1-c1c(O)cnn(C(C)C)c1=O [Compound 2-171]
Growth inhibition rate (%) Redroot pigweed [1, 21]: 0%
Growth inhibition rate (%) Crabgrass [2, 21]: 30%
Growth inhibition rate (%) Barnyardgrass [3, 21]: 65%
Growth inhibition rate (%) Soybean [4, 21]: 0%
Growth inhibition rate (%) Green foxtail [5, 21]: 75%
Growth inhibition rate (%) Corn (corn (Zea mays L.) [6]; [21]): 0%
Growth inhibition rate (%) Velvetleaf [7, 21]: 0%
Growth inhibition rate (%) Rice (rice (Oryza sativa L.) [8]; [21]): 0%
Growth inhibition rate (%) Prickly sida [9, 21]: 0%
Growth inhibition rate (%) Wheat [10, 21]: 0%
Growth inhibition rate (%) Crabgrass [11, 21]: 90%
Growth inhibition rate (%) Wild oat [12, 21]: 0%
Growth inhibition rate (%) Redroot pigweed [13, 21]: 0%
Growth inhibition rate (%) Barnyardgrass [14, 21]: 99%
Growth inhibition rate (%) Soybean [15, 21]: 30%
Growth inhibition rate (%) Italian ryegrass [16, 21]: 30%
Growth inhibition rate (%) Green foxtail [17, 21]: 93%
Growth inhibition rate (%) Corn (corn (Zea mays L.) [18]; [21]): 80%
Growth inhibition rate (%) Rice (rice (Oryza sativa L.) [19]; [21]): 25%
Growth inhibition rate (%) Wheat [20, 21]: 0%

COCCOC(=O)Oc1c(C)nn(C)c(=O)c1-c1cc(Oc2cnc3cc(Cl)ccc3n2)ccc1C [Compound 3-55]
Growth inhibition rate (%) Redroot pigweed [1, 21]: 0%
Growth inhibition rate (%) Crabgrass [2, 21]: 30%
Growth inhibition rate (%) Barnyardgrass [3, 21]: 80%
Growth inhibition rate (%) Soybean [4, 21]: 0%
Growth inhibition rate (%) Green foxtail [5, 21]: 60%
Growth inhibition rate (%) Corn (corn (Zea mays L.) [6]; [21]): 0%
Growth inhibition rate (%) Velvetleaf [7, 21]: 0%
Growth inhibition rate (%) Rice (rice (Oryza sativa L.) [8]; [21]): 0%
Growth inhibition rate (%) Prickly sida [9, 21]: 0%
Growth inhibition rate (%) Wheat [10, 21]: 0%
Growth inhibition rate (%) Crabgrass [11, 22]: 99%
Growth inhibition rate (%) Wild oat [12, 22]: 99%
Growth inhibition rate (%) Redroot pigweed [13, 22]: 0%
Growth inhibition rate (%) Barnyardgrass [14, 22]: 98%
Growth inhibition rate (%) Soybean [15, 22]: 30%
Growth inhibition rate (%) Italian ryegrass [16, 22]: 99%
Growth inhibition rate (%) Green foxtail [17, 22]: 100%
Growth inhibition rate (%) Corn (corn (Zea mays L.) [18]; [22]): 50%
Growth inhibition rate (%) Rice (rice (Oryza sativa L.) [19]; [22]): 90%
Growth inhibition rate (%) Wheat [20, 22]: 98%

Cc1ccc(Oc2cnc3cc(Cl)ccc3n2)cc1-c1c(OC(=O)OCCCl)c(C)nn(C)c1=O [Compound 3-59]
Growth inhibition rate (%) Redroot pigweed [1, 21]: 0%
Growth inhibition rate (%) Crabgrass [2, 21]: 0%
Growth inhibition rate (%) Barnyardgrass [3, 21]: 85%
Growth inhibition rate (%) Soybean [4, 21]: 0%
Growth inhibition rate (%) Green foxtail [5, 21]: 80%
Growth inhibition rate (%) Corn (corn (Zea mays L.) [6]; [21]): 0%
Growth inhibition rate (%) Velvetleaf [7, 21]: 0%
Growth inhibition rate (%) Rice (rice (Oryza sativa L.) [8]; [21]): 0%
Growth inhibition rate (%) Prickly sida [9, 21]: 0%
Growth inhibition rate (%) Wheat [10, 21]: 0%
Growth inhibition rate (%) Crabgrass [11, 22]: 98%
Growth inhibition rate (%) Wild oat [12, 22]: 93%
Growth inhibition rate (%) Redroot pigweed [13, 22]: 0%
Growth inhibition rate (%) Barnyardgrass [14, 22]: 99%
Growth inhibition rate (%) Soybean [15, 22]: 20%
Growth inhibition rate (%) Italian ryegrass [16, 22]: 93%
Growth inhibition rate (%) Green foxtail [17, 22]: 100%
Growth inhibition rate (%) Corn (corn (Zea mays L.) [18]; [22]): 0%
Growth inhibition rate (%) Rice (rice (Oryza sativa L.) [19]; [22]): 0%
Growth inhibition rate (%) Wheat [20, 22]: 65%

CCn1nc(C)c(OC(C)=O)c(-c2cc(Oc3nc4ccc(Cl)cc4o3)ccc2C)c1=O [Compound 2-177]
Growth inhibition rate (%) Redroot pigweed [1, 21]: 0%
Growth inhibition rate (%) Crabgrass [2, 21]: 98%
Growth inhibition rate (%) Barnyardgrass [3, 21]: 90%
Growth inhibition rate (%) Soybean [4, 21]: 0%
Growth inhibition rate (%) Green foxtail [5, 21]: 90%
Growth inhibition rate (%) Corn (corn (Zea mays L.) [6]; [21]): 0%
Growth inhibition rate (%) Velvetleaf [7, 21]: 0%
Growth inhibition rate (%) Rice (rice (Oryza sativa L.) [8]; [21]): 30%
Growth inhibition rate (%) Prickly sida [9, 21]: 0%
Growth inhibition rate (%) Wheat [10, 21]: 0%
Growth inhibition rate (%) Crabgrass [11, 21]: 100%
Growth inhibition rate (%) Wild oat [12, 21]: 98%
Growth inhibition rate (%) Redroot pigweed [13, 21]: 0%
Growth inhibition rate (%) Barnyardgrass [14, 21]: 100%
Growth inhibition rate (%) Soybean [15, 21]: 30%
Growth inhibition rate (%) Italian ryegrass [16, 21]: 98%
Growth inhibition rate (%) Green foxtail [17, 21]: 99%
Growth inhibition rate (%) Corn (corn (Zea mays L.) [18]; [21]): 83%
Growth inhibition rate (%) Rice (rice (Oryza sativa L.) [19]; [21]): 65%
Growth inhibition rate (%) Wheat [20, 21]: 90%

CCn1nc(C)c(OC(C)=O)c(-c2cc(Oc3cnc4cc(Cl)ccc4n3)ccc2C)c1=O [Compound 3-97]
Growth inhibition rate (%) Redroot pigweed [1, 21]: 0%
Growth inhibition rate (%) Crabgrass [2, 21]: 93%
Growth inhibition rate (%) Barnyardgrass [3, 21]: 95%
Growth inhibition rate (%) Soybean [4, 21]: 0%
Growth inhibition rate (%) Green foxtail [5, 21]: 99%
Growth inhibition rate (%) Corn (corn (Zea mays L.) [6]; [21]): 0%
Growth inhibition rate (%) Velvetleaf [7, 21]: 0%
Growth inhibition rate (%) Rice (rice (Oryza sativa L.) [8]; [21]): 20%
Growth inhibition rate (%) Prickly sida [9, 21]: 0%
Growth inhibition rate (%) Wheat [10, 21]: 20%
Growth inhibition rate (%) Crabgrass [11, 22]: 100%
Growth inhibition rate (%) Wild oat [12, 22]: 100%
Growth inhibition rate (%) Redroot pigweed [13, 22]: 0%
Growth inhibition rate (%) Barnyardgrass [14, 22]: 100%
Growth inhibition rate (%) Soybean [15, 22]: 0%
Growth inhibition rate (%) Italian ryegrass [16, 22]: 99%
Growth inhibition rate (%) Green foxtail [17, 22]: 100%
Growth inhibition rate (%) Corn (corn (Zea mays L.) [18]; [22]): 15%
Growth inhibition rate (%) Rice (rice (Oryza sativa L.) [19]; [22]): 75%
Growth inhibition rate (%) Wheat [20, 22]: 95%

Cc1ccc(Oc2cnc3ccccc3c2)cc1-c1c(O)c(C)nn(C)c1=O [Compound 2-112]
Growth inhibition rate (%) Redroot pigweed [1, 23]: 0%
Growth inhibition rate (%) Crabgrass [2, 23]: 100%
Growth inhibition rate (%) Barnyardgrass [3, 23]: 100%
Growth inhibition rate (%) Soybean [4, 23]: 0%
Growth inhibition rate (%) Green foxtail [5, 23]: 100%
Growth inhibition rate (%) Corn (corn (Zea mays L.) [6]; [23]): 0%
Growth inhibition rate (%) Velvetleaf [7, 23]: 0%
Growth inhibition rate (%) Rice (rice (Oryza sativa L.) [8]; [23]): 70%
Growth inhibition rate (%) Prickly sida [9, 23]: 0%
Growth inhibition rate (%) Wheat [10, 23]: 20%
Growth inhibition rate (%) Crabgrass [11, 23]: 98%
Growth inhibition rate (%) Wild oat [12, 23]: 90%
Growth inhibition rate (%) Redroot pigweed [13, 23]: 20%
Growth inhibition rate (%) Barnyardgrass [14, 23]: 99%
Growth inhibition rate (%) Soybean [15, 23]: 0%
Growth inhibition rate (%) Italian ryegrass [16, 23]: 90%
Growth inhibition rate (%) Green foxtail [17, 23]: 100%
Growth inhibition rate (%) Corn (corn (Zea mays L.) [18]; [23]): 93%
Growth inhibition rate (%) Rice (rice (Oryza sativa L.) [19]; [23]): 93%
Growth inhibition rate (%) Wheat [20, 23]: 80%
